Results on 9 molecules are retold here after patent US9862711B2, “Pyrazine derivatives as phosphatidylinositol 3-kinase inhibitors” (NOVARTIS AG, priority 2014, dated 2018).

The subject of this experiment is IL-8-induced neutrophil shape change in human whole blood. Briefly: Whole blood neutrophil shape change assay (Assay L). It is filed as cell-based. As to conditions: 2 nM IL-8, neutrophil shape change by flow cytometry, read-out: Assay L WBSC IC50. The procedure: Whole Blood Neutrophil Shape Change Assay (L)
A flow cytometry based method used to measure the inhibition of IL-8 (interleukin-8)-induced neutrophil shape change in human whole blood.
IL-8 was made up to 2 μM stocks in 0.1% bovine serum albumin/PBS and stored at −80° C. On the day IL-8 was diluted in PBS (phosphate buffered saline) 10 minutes before use. IL-8 was used at final concentration of 2 nM and a concentration range from […] to 200 nM for the donor dose response curve.
Assay fixative solution was prepared fresh each day from 10× concentrated CellFIX™ solution diluted 1:10 in sterile distilled water and then 1:4 with PBS. Assay fixative solution was kept on ice prior to use.
A 10× lysis buffer was prepared in advance by dissolving 20.75 g […] and 2.5 g KHCO3 in 250 ml sterile H2O. This 10× lysis buffer was filtered under sterile conditions and stored for up to two weeks at 4° C. On the day a 1× lysis solution was prepared with sterile distilled H2O and kept on ice prior to use.
The test compounds were prepared as 10 mM stock solutions in 100% DMSO and were stored at 4° C. Once in use for an assay 10 mM stock compounds were thawed and stored at RT protected from light. Compound dilutions were prepared fresh on the day. The first series of dilutions in 100% DMSO were done first thing in the morning. Only once blood had been collected and arrived in laboratory was the next set of dilutions into PBS carried out (1:10 PBS, 10% DMSO). This limited the exposure of diluted compound to plastic and made sure the exposure timing was consistent between assays. Compounds were added to the deep 96 well plates at 10× the final desired concentration (with addition of blood final [DMSO]=1%).
Table 3 illustrates the compound dilution series used in human whole blood neutrophil shape change assay.
On the day of running the assay, assay fixative buffer and 1× lysis solutions were prepared and stored on ice. Compound dilutions in 100% DMSO were prepared as described previously. Human whole blood was collected in K2 EDTA Vacutainers. Once blood was in the laboratory, compound dilutions into PBS were carried out as described previously and depicted in Table 1. 10 μl of 10× final compound concentration was added to appropriate wells of a deep 96-well plate except controls where 10 μl of 10% DMSO was added in place of compound, as outlined in the dilution series in Table 1. The outer wells of the deep well assay plate were filled with 1200 μl of sterile distilled H2O in an effort to limit edge effects (rows A1-H1, A1-A12, A12-H12). An IL-8 dose response was determined for each blood donor examined, to monitor the donor response to IL-8. At this step in assay preparation for the IL-8 dose response samples 10 μl of PBS was added to designated wells. In addition the assay window without DMSO was also assessed each day. For such samples at this step in assay preparation 10 μl of PBS was added in the place of 10% DMSO.
80 μl of whole blood was added to compound/10% DMSO/PBS and mixed once gently upon addition. Lids were placed on the 96 well plates and samples were incubated for 15 minutes at 37° C. in a water-bath.
Following the compound pre-incubation 10× final IL-8 was added to appropriate wells (10 μl of 20 nM working stock IL-8, final IL-8 concentration in blood=2 nM) and 10 μl of PBS was added to the un-stimulated controls. 10× final dose response range IL-8 was also added to designated wells (final concentration range on assay plate was 200 nM to 0.0005 nM, 1:5 serial dilution in PBS). The IL-8 and PBS were added to appropriate wells across all assay plates in the same sequence as the blood to compound addition. Once added to all assay plates, samples were mixed quickly once to ensure even distribution of IL-8. Samples were incubated for 5 minutes at 37° C. in a water-bath. Following the incubation sample plates were transferred to ice where 250 μl of chilled Assay Fixative Buffer was added promptly to all wells. […]
In general terms: A flow cytometer gives signals particle by particle.

The structures appear in SMILES notation.

`Cc1ncc(-c2cncc(-c3cc(S(=O)(=O)NCCCO)ccc3C)n2)s1` [Example 1, N-(3-Hydroxy-propyl)-4-methyl-3-[6-(2-methyl-thiazol-5-yl)-pyrazin-2-yl]-benzenesulfonamide]: the IC50 was found to be 1.33 µM. With `Cc1ccc(S(=O)(=O)NCC(C)(C)O)cc1-c1cncc(-c2cn(C)nc2C)n1` [Example 2, 3-[6-(1,3-Dimethyl-1H-pyrazol-4-yl)-pyrazin-2-yl]-N-(2-hydroxy-2-methyl-propyl)-4-methyl-benzenesulfonamide], the IC50 is 0.266 µM. On to `Cc1ccc(S(=O)(=O)NCCC(C)(C)O)cc1-c1cncc(-c2cn(C)nc2C)n1` [Example 3, 3-[6-(1,3-Dimethyl-1H-pyrazol-4-yl)-pyrazin-2-yl]-N-(3-hydroxy-3-methyl-butyl)-4-methyl-benzenesulfonamide], for which the IC50 was found to be 1.07 µM. Take `Cc1ccc(S(=O)(=O)NCC2(C)COC2)cc1-c1cncc(-c2cn(C)nc2C)n1` [Example 4, Trans 3-[6-(1,3-Dimethyl-1H-pyrazol-4-yl)-pyrazin-2-yl]-4-methyl-N-(3-methyl-oxetan-3-ylmethyl)-benzenesulfonamide]: the IC50 came to 0.548 µM. Regarding `Cc1ncc(-c2cncc(-c3cc(S(=O)(=O)N[C@H]4CC[C@H](O)CC4)ccc3C)n2)s1` [Example 5, Trans N-(4-Hydroxycyclohexyl)-4-methyl-3-(6-(2-methylthiazol-5-yl)pyrazin-2-yl)benzenesulfonamide], the IC50 was 0.179 µM.

With `Cc1ccc(S(=O)(=O)NCC(C)(C)CO)cc1-c1cncc(-c2cn(C)nc2C)n1` [Example 8, 3-[6-(1,3-Dimethyl-1H-pyrazol-4-yl)-pyrazin-2-yl]-N-(3-hydroxy-2,2-dimethyl-propyl)-4-methyl-benzenesulfonamide], the IC50 was 0.625 µM. For `Cc1ccc(S(=O)(=O)NCCC(C)(C)O)cc1-c1cncc(-c2cnn(CCN3CCOCC3)c2)n1` [Example 9, N-(3-Hydroxy-3-methyl-butyl)-4-methyl-3-{6-[1-(2-morpholin-4-yl-ethyl)-1H-pyrazol-4-yl]-pyrazin-2-yl}-benzenesulfonamide], the IC50 is 0.598 µM. For `Cc1ccc(S(=O)(=O)NCCC(C)(C)O)cc1-c1cncc(-c2cn(CCN3CCOCC3)nc2C)n1` [Example 10, N-(3-Hydroxy-3-methyl-butyl)-4-methyl-3-{6-[3-methyl-1-(2-morpholin-4-yl-ethyl)-1H-pyrazol-4-yl]-pyrazin-2-yl}-benzenesulfonamide] the value was 0.663 µM; for `Cc1ccc(S(=O)(=O)N[C@H]2CC[C@H](O)CC2)cc1-c1cncc(-c2cccnc2)n1` [Example 11, Trans N-(4-Hydroxy-cyclohexyl)-4-methyl-3-(6-pyridin-3-yl-pyrazin-2-yl)-benzenesulfonamide], 0.752 µM.

A word on the IC50: it is the concentration needed to halve the response being measured.
